Several values for one entry are separate records, joined by “and”; a condition that tells them apart may be missing. Equal entries are not always repeated.
Assay: Effect of co-administered extracts on the pharmacokinetics of theophylline in rats
Description: Carpediol spissum (Batch No Ex 20404); Swedish Herbal Institute, Gothenburg, Sweden) as described above in Example 1. […] It was analyzed for purity by HPLC, Capillary electrophoresis, ^1H-NMR and ^13C-NMR. • (e) Internal standard: Methyl-4-hydroxybenzoate 99%, F.W. 152.15 Aldrich. • (f) Water, demonized and distilled. • (g) Water for High Performance Capillary Electrophoresis (HPCE), HEWLETT-PACKARD. • (h) Buffer pH=9.3 for HPCE (50 mM Borate). • (i) 0.1N Sodium Hydroxide Solution for HPCE. • (j) Chloroform HPLC grade. • (k) 2-Propanol spectrophotometric grade. • (l) Methanol Chromasorv.
Animals—In this study, 144 time-mated male Wistar rats were used. Breeder: Institute of Fine Organic Chemistry of the National Academy of Science, Yerevan. The initial weight of the animals: 130-170 g (mean weight 149.93±12.4 g). […] All animals were clinically examined upon arrival and any animal showing signs of abnormality or disease was excluded. Animals considered unsuitable for the study were replaced before the start. No animal was replaced following the start of the study.
Dosage and Administration—An appropriate amount of herbal extract was dissolved in distilled water and given at 10:00-10:30 am by oral gavage. Suspensions were shaken gently before oral administration. Suspensions were prepared fresh every day. Control animals were given an appropriate volume of drinking water. Blood samples from rats receiving the carrier only were also analyzed.
Groups of six animals were treated orally with water (10 ml×2 times per day) for three days. 60 minutes after last administration of water, a solution of Aminophylline (10 ml/kg) was given to each animal in dose of 240 mg/kg (corresponding to 192 mg/kg of Theophylline) and blood samples were taken 0.25, 0.5, 1.0, 2.0, 4.0, 6.0 and 8.0 hours after the theophylline administration. A separate group of animals was used for each time point.
It was administered orally in a volume of 10 ml/kg of body weight. Freshly prepared extract was administered two times daily for 3 consecutive days. Single dose—25 mg/kg, daily dose—50 mg/kg. 60 minutes after last administration, a water solution of Aminophylline (10 ml/kg) was given to each animal in dose of 240 mg/kg (corresponding to 192 mg/kg of Theophylline) and blood samples were taken 0.25, 0.5, 1.0, 2.0, 4.0, 6.0 and 8.0 hours after the theophylline administration. A separate group of animals was used for each time point.
One tablet of Jarsin 300 was suspended in 10 ml of water and administered two times daily for 3 consecutive days. 60 minutes after last administration, water solution of Aminophylline (10 ml/kg) was given to each animal in dose of 240 mg/kg (corresponding to 192 mg/kg of Theophylline) and blood samples were taken 0.25, 0.5, 1.0, 2.0, 4.0, 6.0 and 8.0 hours after the theophylline administration. A separate group of animals was used for each time point.
Sampling of blood and sample preparation—Animals were sacrificed by laboratory guillotine. Following decapitation, blood was collected separately in centrifuge tubes and centrifuged at 3000 rpm for 10 min. Blood serum was separated and 50 μl was taken for theophylline assay. Conservation of the samples: the centrifuge tubes were closed with caps, frozen and stored in a freezer for 1-3 days prior to bio-assay.
Analytical Method: Capillary Electrophoresis—A modified capillary electrophoresis method was used, using an internal standard and as a mobile phase 50 mM borate buffer (pH 9.3) without SDS.
Pre-assay preparation—The Ramzan et al. method (52) of extraction of theophylline from serum was modified as follows. 50 μl of blood serum was added to 10 μl of an internal standard methanol solution (methyl-paraben, 60 μg/ml) in centrifuge tube to obtain final concentration of methyl paraben 10 μg/ml. The solution was vortexed vigorously for 10 sec and 1 ml of solvent system of isopropanol. and chloroform in a 5:95 ratio was added for extraction.

[1] = Group 1 (water control), rats, calculated by mean concentrations
[2] = Group 1 (water control), rats, mean of 6 series (column A)
[3] = Group 2 (CRE pretreatment), rats, calculated by mean concentrations
[4] = Group 2 (CRE pretreatment), rats, mean of 6 series (column A)
[5] = Group 3 (Jarsin 300 pretreatment), rats, calculated by mean concentrations
[6] = Group 3 (Jarsin 300 pretreatment), rats, mean of 6 series (column A)

For `Cn1c(=O)c2[nH]cnc2n(C)c1=O` [Theophylline, 1,3-dimethylxantin], the “Concentration of Theophylline in Rat Serum” value (“Concentration of Theophylline” below) (Group 1 (water control), aminophylline 240 mg/kg p.o., 15 min, single rat) was 181.11 µg/mL and 172.059 µg/mL and 225.306 µg/mL and 153.35 µg/mL and 146.67 µg/mL and 101.82 µg/mL, the “Concentration of Theophylline” value (Group 1 (water control), aminophylline 240 mg/kg p.o., 30 min, single rat) was 135.41 µg/mL and 89.49 µg/mL and 50.10 µg/mL and 143.18 µg/mL and 337.56 µg/mL and 101.83 µg/mL and the “Concentration of Theophylline” value (Group 1 (water control), aminophylline 240 mg/kg p.o., 60 min, single rat) was 138.11 µg/mL and 194.27 µg/mL and 255.06 µg/mL and 154.77 µg/mL and 231.79 µg/mL and 86.37 µg/mL. The “Concentration of Theophylline” value (Group 1 (water control), aminophylline 240 mg/kg p.o., 120 min, single rat) was 57.30 µg/mL and 71.98 µg/mL and 61.23 µg/mL and 97.22 µg/mL and 56.61 µg/mL, the “Concentration of Theophylline” value (Group 1 (water control), aminophylline 240 mg/kg p.o., 240 min, single rat) was 77.66 µg/mL and 94.86 µg/mL and 114.84 µg/mL and 61.03 µg/mL and 105.31 µg/mL and 169.15 µg/mL and the “Concentration of Theophylline” value (Group 1 (water control), aminophylline 240 mg/kg p.o., 360 min, single rat) was 43.95 µg/mL and 42.46 µg/mL and 73.58 µg/mL and 77.92 µg/mL and 81.94 µg/mL and 31.38 µg/mL. The “Concentration of Theophylline” value (Group 1 (water control), aminophylline 240 mg/kg p.o., 480 min, single rat) was 22.05 µg/mL and 69.25 µg/mL and 63.68 µg/mL and 44.98 µg/mL and 89.99 µg/mL and 16.09 µg/mL, the “Clt of Theophylline” value [1] was 0.4642 mL/min and the “Kel of Theophylline” value [1] was 0.149 h⁻¹. For the same compound, the “Vd of Theophylline” value [1] was 0.1871 L, the “Clt of Theophylline, Mean” value [2] was 0.4973 mL/min and 0.497 ± 0.055 mL/min and the “Cmax of Theophylline, Mean” value [2] was 195.2 ± 32.9 µg/mL. The “Kel of Theophylline, Mean” value [2] was 0.1638 h⁻¹ and 0.164 ± 0.02 h⁻¹, the “MRT of Theophylline, Mean” value [2] was 6.6239 ± 0.70 h and the “Vd of Theophylline, Mean” value [2] was 0.186 ± 0.015 L. The “t1/2 of Theophylline, Mean” value [2] was 4.504 ± 0.47 h, the “Clt of Theophylline” value (Group 1 (water control), rats, single series) was 0.441 mL/min and 0.3881 mL/min and 0.4945 mL/min and 0.3453 mL/min and 0.6439 mL/min and 0.671 mL/min and the “Concentration of Theophylline” value (Group 2 (CRE pretreatment 3 days), aminophylline 240 mg/kg p.o., 15 min, single rat) was 192.873 µg/mL and 144.71 µg/mL and 164.57 µg/mL and 161.40 µg/mL and 98.74 µg/mL and 8.06 µg/mL. For the same compound, the “Concentration of Theophylline” value (Group 2 (CRE pretreatment 3 days), aminophylline 240 mg/kg p.o., 30 min, single rat) was 190.52 µg/mL and 145.07 µg/mL and 223.28 µg/mL and 30.54 µg/mL and 154.41 µg/mL and 81.52 µg/mL, the “Concentration of Theophylline” value (Group 2 (CRE pretreatment 3 days), aminophylline 240 mg/kg p.o., 60 min, single rat) was 158.01 µg/mL and 189.11 µg/mL and 120.37 µg/mL and 158.89 µg/mL and 119.72 µg/mL and the “Concentration of Theophylline” value (Group 2 (CRE pretreatment 3 days), aminophylline 240 mg/kg p.o., 120 min, single rat) was 205.63 µg/mL and 140.04 µg/mL and 180.859 µg/mL and 96.55 µg/mL and 68.74 µg/mL and 91.30 µg/mL. The “Concentration of Theophylline” value (Group 2 (CRE pretreatment 3 days), aminophylline 240 mg/kg p.o., 240 min, single rat) was 89.87 µg/mL and 65.03 µg/mL and 61.82 µg/mL and 134.64 µg/mL and 148.86 µg/mL and 115.97 µg/mL, the “Concentration of Theophylline” value (Group 2 (CRE pretreatment 3 days), aminophylline 240 mg/kg p.o., 360 min, single rat) was 35.31 µg/mL and 7.61 µg/mL and 20.21 µg/mL and 233.16 µg/mL and 91.61 µg/mL and 38.01 µg/mL and the “Concentration of Theophylline” value (Group 2 (CRE pretreatment 3 days), aminophylline 240 mg/kg p.o., 480 min, single rat) was 7.16 µg/mL and 34.98 µg/mL and 45.36 µg/mL and 56.71 µg/mL and 33.96 µg/mL and 12.51 µg/mL. For the same compound, the “Clt of Theophylline” value [3] was 0.502 mL/min, the “Kel of Theophylline” value [3] was 0.2042 h⁻¹ and the “Vd of Theophylline” value [3] was 0.1475 L. For the same compound, the “Clt of Theophylline, Mean” value [4] was 0.5670 mL/min and 0.567 ± 0.067 mL/min, the “Kel of Theophylline, Mean” value [4] was 0.2706 h⁻¹ and 0.271 ± 0.035 h⁻¹ and the “Vd of Theophylline, Mean” value [4] was 0.130 ± 0.014 L. For the same compound, the “Cmax of Theophylline” value (Group 2 (CRE pretreatment), rats, single series) was 223.3 µg/mL and 161.4 µg/mL and 158.9 µg/mL and 119.7 µg/mL and 192.9 µg/mL, the “Concentration of Theophylline” value (Group 3 (Jarsin 300 pretreatment 3 days), aminophylline 240 mg/kg p.o., 15 min, single rat) was 4.86 µg/mL and 5.81 µg/mL and the “Concentration of Theophylline” value (Group 3 (Jarsin 300 pretreatment 3 days), aminophylline 240 mg/kg p.o., 30 min, single rat) was 25.01 µg/mL and 34.73 µg/mL and 27.80 µg/mL. The “Concentration of Theophylline” value (Group 3 (Jarsin 300 pretreatment 3 days), aminophylline 240 mg/kg p.o., 60 min, single rat) was 23.33 µg/mL and 30.97 µg/mL and 34.52 µg/mL, the “Concentration of Theophylline” value (Group 3 (Jarsin 300 pretreatment 3 days), aminophylline 240 mg/kg p.o., 120 min, single rat) was 16.13 µg/mL and 44.11 µg/mL and 20.84 µg/mL and the “Concentration of Theophylline” value (Group 3 (Jarsin 300 pretreatment 3 days), aminophylline 240 mg/kg p.o., 240 min, single rat) was 4.46 µg/mL and 16.77 µg/mL and 19.04 µg/mL. The “Concentration of Theophylline” value (Group 3 (Jarsin 300 pretreatment 3 days), aminophylline 240 mg/kg p.o., 360 min, single rat) was 5.85 µg/mL and 11.58 µg/mL, the “Concentration of Theophylline” value (Group 3 (Jarsin 300 pretreatment 3 days), aminophylline 240 mg/kg p.o., 480 min, single rat) was 2.34 µg/mL and 5.71 µg/mL and the “Clt of Theophylline” value [5] was 2.310 mL/min. The “Kel of Theophylline” value [5] was 0.2022 h⁻¹, the “Vd of Theophylline” value [5] was 0.6853 L and the “Clt of Theophylline, Mean” value [6] was 2.671 mL/min and 2.671 ± 0.637 mL/min. For the same compound, the “Kel of Theophylline, Mean” value [6] was 0.2204 h⁻¹ and 0.220 ± 0.033 h⁻¹, the “Vd of Theophylline, Mean” value [6] was 0.722 ± 0.091 L and the Cmax (male, Wistar, rat, in vivo, 240 mg/kg, Cmax of Theophylline, Group 1 (water control), rats, calculated by mean concentrations, 60 minutes) was 177 µg/mL. It also gave a concentration at 120 min (male, Wistar, rat, in vivo, 240 mg/kg, Concentration of Theophylline in Rat Serum, Group 1 (water control), aminophylline 240 mg/kg p.o., 120 min, single rat) of 96.3 µg/mL, a concentration at 15 min (male, Wistar, rat, in vivo, 240 mg/kg, Concentration of Theophylline in Rat Serum, Mean, Group 1 (water control), aminophylline 240 mg/kg p.o., 15 min, mean n=6) of 163 µg/mL and a concentration at 30 min (male, Wistar, rat, in vivo, 240 mg/kg, Concentration of Theophylline in Rat Serum, Mean, Group 1 (water control), aminophylline 240 mg/kg p.o., 30 min, mean n=6) of 143 µg/mL. For the same compound, the concentration at 60 min (male, Wistar, rat, in vivo, 240 mg/kg, Concentration of Theophylline in Rat Serum, Mean, Group 1 (water control), aminophylline 240 mg/kg p.o., 60 min, mean n=6) was 177 µg/mL, the concentration at 120 min (male, Wistar, rat, in vivo, 240 mg/kg, Concentration of Theophylline in Rat Serum, Mean, Group 1 (water control), aminophylline 240 mg/kg p.o., 120 min, mean n=6) was 73.4 µg/mL and the concentration at 240 min (male, Wistar, rat, in vivo, 240 mg/kg, Concentration of Theophylline in Rat Serum, Mean, Group 1 (water control), aminophylline 240 mg/kg p.o., 240 min, mean n=6) was 104 µg/mL. It also gave a concentration at 360 min (male, Wistar, rat, in vivo, 240 mg/kg, Concentration of Theophylline in Rat Serum, Mean, Group 1 (water control), aminophylline 240 mg/kg p.o., 360 min, mean n=6) of 58.5 µg/mL and a concentration at 480 min (male, Wistar, rat, in vivo, 240 mg/kg, Concentration of Theophylline in Rat Serum, Mean, Group 1 (water control), aminophylline 240 mg/kg p.o., 480 min, mean n=6) of 51 µg/mL.
